Experiments:
[1] = test system: CD4+ and CD8+ T-cells in peripheral blood mononuclear cells (PBMCs); assay: T-cell activation in stimulated PBMCs (activation markers by flow cytometry); type: cell-based, human; conditions: PBMCs stimulated with anti-CD3 and anti-CD28 antibodies, PHA or SEB; 24 or 48 hours; FIG. 1A
[2] = test system: anti-CD3 antibody and anti-CD28 antibody-, PHA- or SEB-activated lymphocytes; assay: Proliferation of activated lymphocytes in PBMCs (3H-thymidine); type: cell-based, human; conditions: PBMCs stimulated with anti-CD3 and anti-CD28 antibodies, 24 hours plus 18 hours labeling, FIG. 1B
Method: PBMCs (2×10^5 cells) were treated with either Compound 1 or DMSO, and anti-CD3 and anti-CD28 antibodies, PHA or SEB in RPMI 1640 medium containing 10% heat-inactivated FBS, 2-mercaptoethanol and penicillin-streptomycin antibiotics at 37° C., 5% CO2, and 100% humidity. After 24 hours, the cells were labeled with ^3H-thymidine for an additional 18 hours to measure lymphocyte proliferation by liquid scintillation counting. Proliferation of anti-CD3 antibody and anti-CD28 antibody-, PHA- or SEB-activated lymphocytes was inhibited by Compound 1 treatment, as shown in FIG. 1B. Similar data were obtained at 48 hours (data not shown). Data are representative of several independent experiments utilizing different PBMC samples, and are reported as the mean counts per minute (CPM)±standard deviation (SD) of duplicate wells.

[3] = test system: PBMCs (effector) with irradiated allogenic PBMCs (stimulator); assay: Allogenic mixed lymphocyte reaction (MLR); type: cell-based, human; conditions: 4 days plus 18 hours labeling; FIG. 2A-2C
Method: The allogenic MLR is a cell proliferation assay where one population of lymphocytes (effector cells) is stimulated to proliferate by another genetically distinct population of lymphocytes (stimulator cells), which have been rendered non-proliferative. PBMCs [2×10^5 cells, effector (E) population] and irradiated (IR) allogenic PBMCs [1×10^5 cells, stimulator (S) population] were treated with either Compound 1 or DMSO in RPMI 1640 medium containing 10% heat-inactivated FBS, 2-mercaptoethanol and penicillin-streptomycin antibiotics at 37° C., 5% CO2, and 100% humidity. After 4 days, the cells were labeled with ^3H-thymidine for an additional 18 hours to measure lymphocyte proliferation by liquid scintillation counting. […] Multiple independent experiments utilizing different effector/stimulator pairs were conducted. Data are reported as the mean counts per minute (CPM)±standard deviation (SD) of triplicate wells.

[4] = test system: anti-CD3 antibody and anti-CD28 antibody-activated PBMCs; assay: Cytokine secretion by anti-CD3 and anti-CD28 antibody-activated PBMCs (LEGENDplex Human Th Cytokine Panel); type: cell-based; conditions: culture supernatants after 24 hours; fold change relative to DMSO control; FIG. 3A
Method: PBMCs (2×10^5 cells) were treated with either Compound 1 or DMSO, and anti-CD3 and anti-CD28 antibodies in RPMI 1640 medium containing 10% heat-inactivated FBS, 2-mercaptoethanol and penicillin-streptomycin antibiotics at 37° C., 5% CO2, and 100% humidity. After 24 hours, cytokine levels in culture supernatants were determined by a LEGENDplex Human Th Cytokine Panel by manufacturer's instructions (BioLegend, Inc.).
In the presence of Compound 1, the level of all measured cytokines decreased, including IL-2, IL-6, IFNγ and TNFα. Data are representative of several independent experiments utilizing different human PBMC samples, and are reported as the fold change for Compound 1 relative to the DMSO control of duplicate wells.

[5] = test system: mouse primary cancer-associated fibroblasts (CAFs); assay: TGFβ production by primary cancer-associated fibroblasts (CAFs); type: cell-based; conditions: after 3 days; fold change relative to DMSO control; FIG. 3B
Source text: Cancer-associated fibroblasts (CAFs) are used as a model system to investigate TGFβ cytokine production. C57BL/6 mice were obtained from The Jackson Laboratory. The Institutional Animal Care and Use Committee of the University Health Network approved all animal procedures. CAFs were obtained from C57BL/6 mice by growing MC38-CEA mouse colon cancer xenografts subcutaneously in a conventional manner. When tumors reached a size of approximately 1000 mm^3 they were excised and disaggregated, and CAFs were isolated with a Tumor-Associated Fibroblast Isolation Kit (Miltenyi Biotec). Isolated CAFs were grown with a MesenCult Expansion Kit (STEMCELL Technologies, Inc.) at 37° C., 5% CO2, 3% O2, and 100% relative humidity. CAFs were seeded into a 96-well plate in DMEM medium containing 10% FBS 24 hours before treatment with either Compound 1 or DMSO. After 3 days, latent TGFβ was determined by a Mouse Latent TGFβ Legend Max kit by manufacturer's instructions (BioLegend, Inc.). Compound 1 inhibited TGFβ production by mouse primary CAFs. Data are representative of several independent experiments, and are reported as the fold change for Compound 1 relative to the DMSO control of duplicate wells.

[6] = test system: resting CD4+ and CD8+ T-cells; assay: Viability of resting T-cells (annexin V / 7-AAD flow cytometry); type: cell-based, human; conditions: 48 hours; except at high concentrations (30 μM); FIG. 4
Method: (§1) CD3^+ T-cells and CD14^+ monocytes were purified from PBMCs using Human CD3 MicroBeads and Human CD14 MicroBeads, respectively (Miltenyi Biotech). Purified CD3^+ T-cells (2×10^5 cells) or CD14^+ monocytes (2×10^5 cells) were treated with either Compound 1 or DMSO in RPMI 1640 medium containing 10% heat-inactivated FBS, 2-mercaptoethanol and penicillin-streptomycin antibiotics at 37° C., 5% CO2, and 100% humidity. After 48 hours, the cells were stained with antibodies specific for the indicated cell subsets, and annexin V and 7-aminoactinomycin D (7-AAD) cell viability dyes for measurement by flow cytometry. […] Similar data were obtained at 24 and 72 hours (data not shown). Data are representative of several independent experiments utilizing different human PBMC samples, and are reported as the A decrease in percent viability of duplicate wells [mean±standard deviation (SD)].

resting CD14+ monocytes = assay: Viability of resting monocytes (annexin V / 7-AAD flow cytometry); type: cell-based, human; conditions: 48 hours; FIG. 4
Method: as §1

unstimulated whole blood = assay: Whole blood cytokine release assay (CRA); type: cell-based; conditions: whole blood diluted 4:1 with RPMI 1640, 4 hours; LEGENDplex Human Th Cytokine Panel
Method: The potential for cytokine release syndrome in patients treated with Compound 1 was evaluated using a whole blood cytokine release assay (CRA). Fresh whole blood from a healthy human donor was diluted 4:1 with RPMI 1640 medium and cultured for 4 hours in the presence of Compound 1 or DMSO. Lipopolysaccharide (LPS) (1 μg/mL) was used as a positive control. Cytokine levels in serum samples were determined by a LEGENDplex Human Th Cytokine Panel by manufacturer's instructions (BioLegend, Inc.). […] Data listed in Table 1 below are representative of several independent experiments, and are reported as the mean fold change for Compound 1 relative to the DMSO control of duplicate wells.

[7] = test system: C57BL/6 mice immunized with MOG35-55 peptide; assay: Experimental autoimmune encephalomyelitis (EAE) model; type: in vivo, mouse; conditions: 50 mg/kg PO QD during EAE induction; FIG. 5

## CN1CCN(c2ccc3nc(-c4c(N)c5ccsc5[nH]c4=O)[nH]c3c2)CC1 [Compound 1]
[1]
  CD4+ and CD8+ T-cell activation (cell surface expression of CD25 and CD69, shedding of CD62L): titratable inhibition
[2]
  Lymphocyte proliferation (3H-thymidine, CPM): inhibited
[3]
  Lymphocyte proliferation in allogenic MLR (3H-thymidine, CPM): dose-dependent inhibition
[4]
  Level of all measured cytokines, including IL-2, IL-6, IFNγ and TNFα: decreased
[5]
  TGFβ production (latent TGFβ): inhibited
[6]
  Viability of resting CD4+ and CD8+ T-cells: no significant effect
Resting CD14+ monocytes
  Viability of resting CD14+ monocytes: dose-dependent loss of viability
Unstimulated whole blood
  Induction of cytokine levels predictive of cytokine release syndrome in vivo: did not induce

## CN1CCN(c2ccc3nc(-c4c(N)c5sccc5[nH]c4=O)[nH]c3c2)CC1 [Compound 2]
[7]
  EAE disease progression (clinical score): blocks EAE disease progression

Reference: patent US20230144869A1, “METHODS FOR TREATING CYTOKINE RELEASE SYNDROME” (UNIVERSITY HEALTH NETWORK, priority 2020, published 2023)
